The values that follow come from US20250339546A1, “GLIOBLASTOMA TUMOR GROWTH INHIBITON BY SAT1 KNOCKDOWN” (BIOMARK CANCER SYSTEMS, INC., priority 2021, published 2025).

Like-named read-outs stand apart in the source and are kept apart here.

The target of series [1] is SAT1 (Homo sapiens, UniProt P21673). As for the experimental part:
FIG. 17C SAT1 induction was confirmed by Western blot analysis of the protein sample. (mean=+SD, n=3).
Next, SAT1 activity was assessed in U251 cells via production of acetylated-amantadine after treatment with the SAT1 substrate amantadine, or the production of acetylated-rimantadine after treatment with the SAT1 substrate rimantadine.

Series [2] deals with BBB. Put plainly: Bidirectional BBB permeability in the BBB microfluidic model. As to the method:
Permeability coefficients are the mean±SD of 3 microfluidic units.
Finally, the bidirectional BBB permeability of amantadine and rimantadine, as well as their metabolites, was evaluated in the previously described model.

The test system of series [3] is NAT2. The experiment in a line: NAT2 gene and protein expression in U251 cells. Type of series: cell-based, human. Particulars: 10 μM, 24 h and 48 h.
The test system of series [4] is SAT1. Put plainly: SAT1 induction in U251 cells (mRNA and Western blot). Particulars: 10 μM, 24 and 48 hours. Type of series: cell-based, human. An excerpt: SAT1 expression was next evaluated in U251 cells.
(In general: A western blot detects proteins with antibodies after separation by electrophoresis.)

Series [5] deals with NAT1. Put plainly: NAT1 gene and protein expression in U251 cells. Type of series: cell-based, human. Particulars: 10 μM, 24 h and 48 h.
Series [6] has as its system macrophage cells (ANA-1). The experiment in a line: Cell viability/proliferation MTT assay, ANA-1. Type of series: cell-based, murine. To be noted: 0.1 μM. As for the experimental part:
(§1) Cells were transfected in T-25 flask as discussed above. Forty-eight hours after transfection, the cells were seeded in 96-well plates (5000 cells/well). After 24-hours, the cells were exposed to no treatment or either 10 Gy radiation (RS-2000, Rad Source Technologies, Inc., Buford, GA, USA) or anticancer drugs carmustine (i.e., BCNU™ or BiCNU™) (100 μM), Doxorubicin (0.1 μM) and Topotecan (0.2 μM). After 24 hours, the media and treatments were removed and replaced with fresh media and cultured for 48 hours. The percentage of viable cells was determined using MTT assay (Norouzi et al, 2020).
For orientation: Tetrazolium dyes change colour on reduction, which living cells bring about.

Series [7] has as its system U251 glioblastoma cells. Put plainly: Cell viability/proliferation MTT assay, U251. Type of series: cell-based, human. Particulars: combined with SAT1 knockdown, DOX 0.1 μM, TOPO 0.2 μM. As to the method:
as §1

Chain of SAT1 (Homo sapiens, UniProt P21673) (P21673 whole entry): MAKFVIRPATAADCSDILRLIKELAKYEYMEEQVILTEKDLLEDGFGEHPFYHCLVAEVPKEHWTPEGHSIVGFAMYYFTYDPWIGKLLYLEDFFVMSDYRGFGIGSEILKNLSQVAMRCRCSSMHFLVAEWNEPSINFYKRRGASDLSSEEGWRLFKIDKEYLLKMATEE

Consider `CC(=O)NC12CC3CC(CC(C3)C1)C2` [Ac-amantadine, acetylated-amantadine], for which, in series [1], the “earliest detection after induction” value was determined as 5 min and the “earliest detection after induction, in some cases” value was 3 min. For the same compound, in series [2] (from the brain to blood), the BBB permeability entry is given as “able to cross the BBB from the brain to blood efficiently”.

Take `CC(=O)NC(C)C12CC3CC(CC(C3)C1)C2` (stereo not drawn) [Ac-rimantadine, acetylated-rimantadine]: in series [1], the “earliest detection after induction” value worked out at 5 min and the “earliest detection after induction, in some cases” value stood at 3 min. Also, in series [2], the BBB permeability entry was “able to cross the BBB from the brain to blood efficiently”.

As for `CCNCCCNCCCNCCCNCC` [DENSPM, N(1),N(11)-diethylnorspermine], in series [3], the “NAT2 gene and protein expression levels” value is listed as “did not significantly change”. Also, in series [4], the “SAT1 gene and protein expression” value is “enhanced”. In addition, the “NAT1 gene and protein expression levels” value in series [5] was “did not significantly change”.

Regarding `COc1cccc2c1C(=O)c1c(O)c3c(c(O)c1C2=O)C[C@@](O)(C(=O)CO)C[C@@H]3O[C@H]1C[C@H](N)[C@H](O)[C@H](C)O1` [DOX, Doxorubicin], in series [6], the “sensitivity of cells to treatment” value is given as “particularly sensitive”. The cell viabilities/proliferation result in series [7] is “lowest”.

Take `CC[C@@]1(O)C(=O)OCc2c1cc1n(c2=O)Cc2cc3c(CN(C)C)c(O)ccc3nc2-1` [TOPO, Topotecan]: the cell viabilities/proliferation entry in series [7] is on record as “lowest”.

On to `NC12CC3CC(CC(C3)C1)C2` [amantadine], for which the BBB permeability result in series [2] (from blood to the brain) is recorded as “able to cross”.

Consider `CC(N)C12CC3CC(CC(C3)C1)C2` (stereo not drawn) [rimantadine], for which, in series [2], the BBB permeability entry is listed as “able to cross” and the “BBB permeability relative to amantadine” value is listed as “slightly more permeable”.
